This is an account of results in PubChem BioAssay (NCI).

Assay in all cases: NCI-60 cell line screen, 48 h
In test [1] the test system is HCT-15 colon.
In test [2] the test system is NCI-H226 lung.
Test [3] has as its system NCI-H23 lung.
Test [4] has as its system NCI-H460 lung.
The test system of test [5] is NCI/ADR-RES ovarian.
Test [6] concerns OVCAR-4 ovarian.
Test [7] relates to OVCAR-5 ovarian.
For test [8], the system named is SF-268 CNS.
Test [9] concerns TK-10 renal.
The subject of test [10] is UO-31 renal.

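48-hour exposure; five concentrations; linearly interpolated endpoints. The concentration for 50% growth inhibition is given as GI50. TGI denotes the concentration required for complete inhibition of growth.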

Consider `COC(=O)c1cnc(=O)n(C2CC(O)C(CO)O2)c1` (stereo not given), for which the GI50 in test [1], in [2], in test [3], in test [4], in test [5] and in [6] was > 100 µM in each case. The GI50 in [7], in test [8], in test [9] and in [10] was > 100 µM in each case. Besides, the TGI in [1], in test [2], in test [3], in test [4], in test [5] and in [6] was > 100 µM throughout. The TGI in [7], in [8], in test [9] and in [10] was > 100 µM throughout.
In the case of `O=[N+]([O-])c1ccc(Sc2ncccn2)c([N+](=O)[O-])c1`, the GI50 in test [1] is 2.67 µM; in test [2], 4.28 µM; in test [3], 5.28 µM; in [4], 6.78 µM; in test [5] it was 6.55 µM; in test [6], 2.96 µM. The GI50 is 7.35 µM in test [7], 5.08 µM in test [8], 2.57 µM in test [9] and 1.93 µM in [10]. Also, the TGI in test [1] amounted to 11.1 µM; in [2] it was 18.2 µM; in test [3], 19.1 µM; in [4], 24.1 µM; in test [5] it was 20.1 µM; in [6] it was 13.5 µM. Further, the TGI in test [7] turned out to be 19.8 µM; in test [8], 19.6 µM; in [9], 5.77 µM; in test [10], 7.36 µM.
`Cn1cc(-c2ccc(=O)n(Cc3cccc(-c4ncc(OCCN5CCOCC5)cn4)c3)n2)cn1`: the GI50 is > 100 µM in [1]; 23.5 µM in test [2]; 32.9 µM in test [3]; > 100 µM in test [4]; 37.5 µM in test [5]; 33.5 µM in test [6]. The GI50 in [7] was > 100 µM; in test [8] it was > 100 µM; in [9], 99 µM; in test [10], 64.8 µM. For the same compound, the TGI in test [1], in test [2], in [3], in [4], in test [5] and in [6] was > 100 µM each time. In addition, the TGI in test [7], in test [8], in test [9] and in test [10] was > 100 µM each time.
Turning to `COc1cc[nH]c1/C=C1\C(=O)Nc2ccc(F)c(C#C[C@@H](O)[C@@H](N)[C@@H](C)O)c21`, the GI50 in [1] was 0.839 µM; in test [2], 0.526 µM; in test [3], 0.649 µM; in test [4], 0.515 µM; in test [5] it was 6.65 µM; in test [6] it was 0.671 µM. For the same compound, the GI50 was 0.673 µM in test [7], 0.663 µM in test [8], 0.258 µM in [9] and 0.745 µM in test [10]. Besides, the TGI came to 18.3 µM in test [1]; 2.54 µM in [2]; 3.33 µM in test [3]; 2.77 µM in test [4]; 25 µM in [5]; 6.85 µM in test [6]. Also, the TGI in test [7] is 5.14 µM; in [8], 2.42 µM; in [9] it was 1.86 µM; in [10], 2.7 µM.
For `CCCCCCCCCCCCc1ccc(C(=O)/C=C/C(=O)O)cc1`, the GI50 in test [1] is 1.71 µM; in test [2], 1.59 µM; in test [3], 1.89 µM; in [4], 10.8 µM; in test [5], 7.78 µM; in [6], 2.06 µM. For the same compound, the GI50 in test [7] is 10.3 µM; in test [8] it was 2.64 µM; in [9] it was 1.82 µM; in test [10] it was 1.63 µM. Besides, the TGI was determined as 3.45 µM in [1]; 3.14 µM in test [2]; 4.65 µM in test [3]; 27.1 µM in test [4]; 24.5 µM in test [5]; 4.46 µM in test [6]. The TGI was 23.1 µM in [7], 8.28 µM in test [8], 3.64 µM in test [9] and 3.01 µM in test [10].
For `COc1ccc(-c2cc(-c3ccc(Nc4nc(Nc5ccc(Cl)cc5)nc(Nc5ccc(Cl)cc5)n4)cc3)nc(N)c2C#N)cc1`, the GI50 in [1] was 1.54 µM; in test [2] it was 0.676 µM; in [3], 3.52 µM; in [4], 4.2 µM; in test [5], 13.3 µM; in test [6], 2.51 µM. For the same compound, the GI50 in test [7] was 4.14 µM; in test [8], 2.88 µM; in [9] it was 2.08 µM; in test [10], 1.57 µM. In addition, the TGI in test [1] was 5.24 µM; in test [2] it was 1.89 µM; in test [3], > 87.7 µM; in test [4], > 54.2 µM; in [5] it was > 100 µM; in test [6] it was > 100 µM. The TGI in test [7] is 24 µM; in test [8], 8.38 µM; in [9] it was 3.77 µM; in [10], 3.26 µM.
